The source of these data is patent US11673877B2 (priority 2017, dated 2023).

For data set [1] the following is noted: for water activity at which the form is the preferred form: slurry in water/DMSO mixtures, 2 days. On the procedure: Powder samples were prepared in a low background Si holder using light manual pressure to keep the sample surfaces flat and level with the reference surface of the sample holder. Each sample was analyzed from 2 to 40° 2θ using a continuous scan of 6° 2θ per minute with an effective step size of 0.02° 2θ. Unless otherwise noted, XPRD studies were performed at room temperature and room humidity.
Slurry experiments designed to provide a range of water activities were carried out in solvent mixtures containing water and dimethylsulfoxide (Table 1). […] The samples were analyzed while wet to avoid changes, such as the hydrate converting to the anhydrate, from drying.

The conditions of data set [2]: for hygroscopicity from DVS curve: 5 to 95% RH; for solid form by XRPD after the DVS experiment: after adsorption/desorption cycle 5-95-5% RH. On the procedure: DVS analyses were carried out TA Instruments Q5000 Dynamic Vapor Sorption analyzer. The instrument was calibrated with standard weights and a sodium bromide standard for humidity. Samples were analyzed at 25° C. with a maximum equilibration time of 60 minutes in 10% relative humidity (RH) steps from 5 to 95% RH (adsorption cycle) and from 95 to 5% RH (desorption cycle).
After the experiment the samples were analyzed by XRPD.

For data set [3] the following is noted: solid form, no method given.
A short description of data set [4]: physchem. The conditions noted are these: aqueous solution, aqueous buffer.
The subject of data set [5] is cancer cells with mutant BRCA-1 and BRCA-2. The settings on record: read-out: inhibition of proliferation CC50; cited from earlier work.
Data set [6] concerns PARP. The conditions noted are these: read-out: inhibition of PARP activity EC50; whole cell assay; cited from earlier work.

Converted amounts (≈) assume the structure as drawn. Where two headings read alike, the source gives them in different places. Bounds are passed on as bounds.

Take `Cc1ccc(S(=O)(=O)O)cc1.NC(=O)c1cccc2cn(-c3ccc([C@@H]4CCCNC4)cc3)nc12` [niraparib tosylate, 2-{4-[(3S)-piperidin-3-yl]phenyl}-2H-indazole-7-carboxamide tosylate]: the “XRPD Result” value in data set [1] (0 % water in DMSO, water activity 0, 2 days) is on record as “anhydrate”; in data set [1] (17.2 % water in DMSO, water activity 0.22, 2 days) it was “hydrate”; in data set [1] (27.6 % water in DMSO, water activity 0.38, 2 days), “hydrate”; in data set [1] (43.3 % water in DMSO, water activity 0.60, 2 days) it was “hydrate”; in data set [1] (82.8 % water in DMSO, water activity 0.84, 2 days), “hydrate”; in data set [1] (100.0 % water, water activity 1.00, 2 days), “hydrate”.

Consider `NC(=O)c1cccc2cn(-c3ccc([C@@H]4CCCNC4)cc3)nc12` [Form III, 2-{4-[(3S)-piperidin-3-yl]phenyl}-2H-indazole-7-carboxamide], for which, in data set [1], the “water activity at which the form is the preferred form” value is listed as not above 0.11. For the same compound, the “hygroscopicity from DVS curve” value in data set [2] (25° C.) is listed as “very hygroscopic”. Moreover, in data set [2], the “solid form by XRPD after the DVS experiment” value is “converted to the monohydrate”. Also, the DVS weight gain result in data set [2] (up to 95% RH, 25° C.) is “approximately 15.8%”.

With `NC(=O)c1cccc2cn(-c3ccc([C@@H]4CCCNC4)cc3)nc12` [2-{4-[(3S)-piperidin-3-yl]phenyl}-2H-indazole-7-carboxamide, reference compound], the hygroscopicity result in data set [3] is “highly hygroscopic”.

With `NC(=O)c1cccc2cn(-c3ccc([C@@H]4CCCNC4)cc3)nc12` [Niraparib, 2-{4-[(3S)-piperidin-3-yl]phenyl}-2H-indazole-7-carboxamide], in data set [4], the solubility (in general, how much of the substance goes into solution per volume) was 700 to 1100 µg/mL (≈ 2180 to 3430 µM). In data set [5], the CC50 was 10 to 100 nM. The EC50 (as a rule, the concentration at which the effect is half-maximal) in data set [6] was […].

In the case of `Cc1ccc(S(=O)(=O)O)cc1.NC(=O)c1cccc2cn(-c3ccc([C@@H]4CCCNC4)cc3)nc12` [Niraparib tosylate monohydrate, 2-{4-[(3S)-piperidin-3-yl]phenyl}-2H-indazole 7-carboxamide 4-methylbenzenesulfonate hydrate (1:1.1)], the “water activity at which the form is the preferred form” value in data set [1] is not below 0.22. Moreover, in data set [2] (25° C.), the “hygroscopicity from DVS curve” value is “not hygroscopic”. For the same compound, in data set [2], the “solid form by XRPD after the DVS experiment” value is “remained unchanged”. For the same compound, the hygroscopicity entry in data set [3] is on record as “non-hygroscopic”.
